Source: ChEMBL document CHEMBL3751822, “C1C2-linker substituted 1,5-naphthyridine analogues of oxabicyclooctane-linked NBTIs as broad-spectrum antibacterial agents (part 7)” (Medchemcomm, 2015)

Columns and labels:
Format in all cases: functional
Staphylococcus aureus [1] = test: Antibacterial activity against quinolone-sensitive Staphylococcus aureus MS5935 by micro-broth dilution method
Staphylococcus aureus [2] = test: Ratio of MIC for quinolone-resistant Staphylococcus aureus MS5935 to MIC for quinolone-sensitive Staphylococcus aureus MS5935
Staphylococcus aureus [3] = test: Antibacterial activity against quinolone-resistant Staphylococcus aureus MS5935 by micro-broth dilution method

`C[C@H]1COc2c(N3CCN(C)CC3)c(F)cc3c(=O)c(C(=O)O)cn1c23.C[C@H]1COc2c(N3CCN(C)CC3)c(F)cc3c(=O)c(C(=O)O)cn1c23.O` [LEVOFLOXACIN] was tested. Which MIC (Staphylococcus aureus [1]) did it give?
Its MIC is 0.26 µg/mL.

What about the Ratio (Staphylococcus aureus [2]) of the same compound?
Its Ratio is greater than 64.

What about the MIC (Staphylococcus aureus [3]) of the same compound?
Its MIC is greater than 16 µg/mL.
